# Laboratory results: patent US20150105252A1, “SUBSTITUTED PYRAZOLES AS HERBICIDES” (E I DU PONT DE NEMOURS AND COMPANY, priority 2013, published 2015)
# What was measured:
# oilseed rape = assay: Test D postemergence; format: in vivo, Brassica napus; conditions: scale 0 to 100
# Method in brief: (§1)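 Preemergence: seeds sown in silt loam and sprayed with compounds in a non-phytotoxic solvent with surfactant; postemergence: plants at 2 to 18 cm (1- to 4-leaf stage) in peat-based medium treated likewise. After 14 to 21 days in controlled growth conditions, injury rated visually versus controls on 0 (no effect) to 100 (complete control) scale.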
# wheat, spring = assay: Test D postemergence; format: in vivo, Triticum aestivum; conditions: scale 0 to 100
# Method in brief: as §1
# wheat, winter = assay: Test D postemergence; format: in vivo, Triticum aestivum; conditions: scale 0 to 100
# Method in brief: as §1
# mustard, wild = assay: Test D preemergence; format: in vivo, Sinapis arvensis; conditions: scale 0 to 100
# Method in brief: as §1
# yellow nutsedge = assay: Test F preemergence; format: in vivo, Cyperus esculentus
# Method in brief: (§2)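 Seeds were sown in silt loam and sprayed preemergence with compound in a non-phytotoxic solvent mixture containing surfactant. Postemergence sprays went onto plants 2 to 18 cm tall (1- to 4-leaf stage). After 14 to 21 days in a greenhouse, injury was rated visually against untreated controls, 0 (no effect) to 100 (complete control).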
# pigweed = assay: Test D preemergence; format: in vivo, Amaranthus retroflexus; conditions: scale 0 to 100
# Method in brief: as §1
# nightshade = assay: Test F preemergence; format: in vivo, Solanum ptycanthum
# Method in brief: as §2
# barnyardgrass = assay: Test F preemergence; format: in vivo, Echinochloa crus-galli
# Method in brief: as §2
# bromegrass, downy = assay: Test D postemergence; format: in vivo, Bromus tectorum; conditions: scale 0 to 100
# Method in brief: as §1
# windgrass [1] = assay: Test D postemergence; format: in vivo, Apera spica-venti; conditions: scale 0 to 100
# Method in brief: as §1
# field violet = assay: Test D postemergence; format: in vivo, Viola arvensis; conditions: scale 0 to 100
# Method in brief: as §1
# windgrass [2] = assay: Test D preemergence; format: in vivo, Apera spica-venti; conditions: scale 0 to 100
# Method in brief: as §1
# green foxtail = assay: Test F preemergence; format: in vivo, Setaria viridis
# Method in brief: as §2
# chickweed = assay: Test D preemergence; format: in vivo, Stellaria media; conditions: scale 0 to 100
# Method in brief: as §1
# [3] = Preemergence, 62 g ai/ha, scale 0 to 100
# [4] = Preemergence, 125 g ai/ha, scale 0 to 100
# [5] = preemergence, 8 g ai/ha, scale 0 to 100, 100 is complete control
# [6] = Preemergence, 16 g ai/ha, scale 0 to 100
smiles,measurement,setting,value
CCOc1cc(C(=O)NC(C)C)nn1Cc1ccnc(C(F)(F)F)c1 [Compound 188],Oilseed Rape plant response rating,"oilseed rape; Postemergence, 31 g ai/ha",55
same,Oilseed Rape plant response rating,"oilseed rape; Postemergence, 125 g ai/ha",55
same,Oilseed Rape plant response rating,"oilseed rape; Postemergence, 250 g ai/ha",70
same,Oilseed Rape plant response rating,"oilseed rape; postemergence, 62 g ai/ha",55
same,"Wheat, Spring plant response rating","wheat, spring; Postemergence, 31 g ai/ha",10
same,"Wheat, Spring plant response rating","wheat, spring; Postemergence, 125 g ai/ha",15
same,"Wheat, Spring plant response rating","wheat, spring; Postemergence, 250 g ai/ha",40
same,"Wheat, Spring plant response rating","wheat, spring; postemergence, 62 g ai/ha",10
same,"Wheat, Winter plant response rating","wheat, winter; Postemergence, 31 g ai/ha",25
same,"Wheat, Winter plant response rating","wheat, winter; Postemergence, 125 g ai/ha",30
same,"Wheat, Winter plant response rating","wheat, winter; Postemergence, 250 g ai/ha",65
same,"Wheat, Winter plant response rating","wheat, winter; postemergence, 62 g ai/ha",25
same,"Plant response rating, Mustard, Wild","mustard, wild; 62 g ai/ha",100
same,"Plant response rating, Mustard, Wild","mustard, wild; 125 g ai/ha",100
same,"Plant response rating, Mustard, Wild","mustard, wild; 250 g ai/ha",100
same,"Plant response rating, Yellow Nutsedge",yellow nutsedge; [3],15
same,"Plant response rating, Yellow Nutsedge",yellow nutsedge; [4],70
same,"Plant response rating, Yellow Nutsedge",yellow nutsedge; [5],0
same,"Plant response rating, Pigweed",pigweed; 62 g ai/ha,100
same,"Plant response rating, Pigweed",pigweed; 125 g ai/ha,100
same,"Plant response rating, Pigweed",pigweed; 250 g ai/ha,100
same,"Plant response rating, Nightshade",nightshade; [6],98
same,"Plant response rating, Nightshade",nightshade; [3],95
same,"Plant response rating, Nightshade",nightshade; [4],98
same,"Plant response rating, Nightshade",nightshade; [5],0
same,"Plant response rating, Barnyardgrass",barnyardgrass; [6],25
same,"Plant response rating, Barnyardgrass",barnyardgrass; [3],80
same,"Plant response rating, Barnyardgrass",barnyardgrass; [4],100
same,"Plant response rating, Barnyardgrass",barnyardgrass; [5],0
same,"Bromegrass, Downy plant response rating","bromegrass, downy; Postemergence, 31 g ai/ha",15
same,"Bromegrass, Downy plant response rating","bromegrass, downy; Postemergence, 125 g ai/ha",15
same,"Bromegrass, Downy plant response rating","bromegrass, downy; Postemergence, 250 g ai/ha",20
same,"Bromegrass, Downy plant response rating","bromegrass, downy; postemergence, 62 g ai/ha",15
same,Windgrass plant response rating,"windgrass [1]; Postemergence, 31 g ai/ha",20
same,Windgrass plant response rating,"windgrass [1]; Postemergence, 125 g ai/ha",35
same,Windgrass plant response rating,"windgrass [1]; Postemergence, 250 g ai/ha",45
same,Windgrass plant response rating,"windgrass [1]; postemergence, 62 g ai/ha",20
same,Field Violet plant response rating,"field violet; Postemergence, 31 g ai/ha",85
same,Field Violet plant response rating,"field violet; Postemergence, 125 g ai/ha",100
same,Field Violet plant response rating,"field violet; Postemergence, 250 g ai/ha",100
same,Field Violet plant response rating,"field violet; postemergence, 62 g ai/ha",85
same,"Plant response rating, Windgrass",windgrass [2]; 62 g ai/ha,100
same,"Plant response rating, Windgrass",windgrass [2]; 125 g ai/ha,100
same,"Plant response rating, Windgrass",windgrass [2]; 250 g ai/ha,100
same,"Plant response rating, Green Foxtail",green foxtail; [3],100
same,"Plant response rating, Green Foxtail",green foxtail; [4],100
same,"Plant response rating, Green Foxtail",green foxtail; [5],5
same,"Plant response rating, Chickweed",chickweed; 31 g ai/ha,100
same,"Plant response rating, Chickweed",chickweed; 62 g ai/ha,100
same,"Plant response rating, Chickweed",chickweed; 125 g ai/ha,100
same,"Plant response rating, Chickweed",chickweed; 250 g ai/ha,100
